In publication PMC12157126, “Saturation kinetics and specificity of transporters for L-arginine and asymmetric dimethylarginine (ADMA) at the blood-brain and blood-CSF barriers” (PLOS One, 2025):
“And” between values parts separate entries of the source, which are not always exact repeats. Equal values may be shown once. Read-outs that look alike come from different tables or passages of the source.

How the values were obtained:
[1] = tested on: blood-brain and blood-CSF barriers; settings: male, BALB/c, mouse, in vivo, 10 min
Protocol: The in situ brain/choroid plexus perfusion method was performed as previously described and will only be briefly detailed here. […] At the end of the perfusion period a CSF sample was taken from the cisterna magna, the animal was decapitated, the brain removed and samples taken under a Leica S4E L2 stereomicroscope (Leica; Buckinghamshire, UK). […] The circumventricular organs (CVOs) including the choroid plexus, pituitary gland and pineal gland were also sampled. Brain samples were also taken for capillary depletion analysis.
It is specifically used in brain samples (including brain homogenate and brain supernatant) to measure the vascular space at all perfusion time points. At later time points, in particular, it may also represent the capillary endothelial cell volume and/ or diffusion across the brain capillary wall and into the brain interstitial fluid. In the pellet samples it will measure extracellular fluid and may also represent capillary endothelial cell volume. […] It may also represent any accumulation into the cells of the choroid plexus.

[2] = tested on: blood-brain and blood-CSF barriers; assay: Self-inhibition experiments: [3H]-ADMA uptake with 0.5-500 μM unlabelled ADMA and kinetic constants (Km, Vmax, Kd); format: in vivo, adult male BALB/c mice; set-up: [3H] ADMA, hippocampus / [3H] ADMA, thalamus: unit not given beside the values
[3] = tested on: NO production; set-up: method as in PMID 17082183; settings: cited from earlier work
[4] = tested on: CAT-1; settings: CAT-1 transports ADMA; cited from earlier work
[5] = CONTROL, 10 mins, 5ml/min, single mice

distribution into capillary endothelial cells, times lower than into choroid plexus [1] [times]	Compound	decrease of [3H]-ADMA uptake ([2]; 500 μM unlabelled ADMA, frontal cortex) [%]	effect on uptake of [3H]-ADMA (62.5 nM) ([2]; 0.5, 3.0, 10, 100 and 500μM un-labelled ADMA, all brain regions)	Difference ([3H] ADMA minus [14C] Sucrose), hippocampus [2, 5]	Difference ([3H] ADMA minus [14C] Sucrose), hypothalamus [2, 5]	Difference ([3H] ADMA minus [14C] Sucrose), occipital cortex [2, 5]	Difference ([3H] ADMA minus [14C] Sucrose), thalamus [2, 5]	[3H] ADMA, hippocampus [2, 5]	[3H] ADMA, hypothalamus [2, 5]	[3H] ADMA, occipital cortex [2, 5]	[3H] ADMA, supernatant [2, 5]	[3H] ADMA, thalamus [2, 5]	inhibition of NO production ([3]; normal ADMA concentrations within cells) [%]	inhibition of NO production ([3]; plasma ADMA concentrations higher than normal) [%]	Km [4] [µM]
31.4	OC[C@H]1O[C@@](CO)(O[C@H]2O[C@H](CO)[C@@H](O)[C@H](O)[C@H]2O)[C@@H](O)[C@@H]1O [[^14C]-sucrose, sucrose]	–	–	–	–	–	–	–	–	–	–	–	–	–	–
–	CN(C)C(N)=NCCC[C@H](N)C(=O)O.Cl.Cl [unlabelled ADMA, N^G,N^G-dimethylarginine dihydrochloride]	79.9	significantly self-inhibited	0.1991 and 0.2866 and 0.2044 and 0.2062	0.21 and 0.3614 and 0.2746 and 0.3021	0.1943 and 0.2753 and 0.1841 and 0.2419 and 0.2303	0.1695 and 0.2656 and 0.1763 and 0.2233 and 0.2154	0.2134 and 0.305 and 0.2049 and 0.2208 and 0.2239	0.2341 and 0.3969 and 0.298 and 0.3627 and 0.4134	0.2132 and 0.2962 and 0.2074 and 0.2625 and 0.2565	0.1192 and 0.1611 and 0.1028 and 0.139 and 0.1685	0.1804 and 0.2881 and 0.1916 and 0.2507 and 0.2348	10	70	183 ± 21
